Bounds are passed on as bounds.

T1 sequence (P13569 with tags, fused parts or gaps DEL508-508): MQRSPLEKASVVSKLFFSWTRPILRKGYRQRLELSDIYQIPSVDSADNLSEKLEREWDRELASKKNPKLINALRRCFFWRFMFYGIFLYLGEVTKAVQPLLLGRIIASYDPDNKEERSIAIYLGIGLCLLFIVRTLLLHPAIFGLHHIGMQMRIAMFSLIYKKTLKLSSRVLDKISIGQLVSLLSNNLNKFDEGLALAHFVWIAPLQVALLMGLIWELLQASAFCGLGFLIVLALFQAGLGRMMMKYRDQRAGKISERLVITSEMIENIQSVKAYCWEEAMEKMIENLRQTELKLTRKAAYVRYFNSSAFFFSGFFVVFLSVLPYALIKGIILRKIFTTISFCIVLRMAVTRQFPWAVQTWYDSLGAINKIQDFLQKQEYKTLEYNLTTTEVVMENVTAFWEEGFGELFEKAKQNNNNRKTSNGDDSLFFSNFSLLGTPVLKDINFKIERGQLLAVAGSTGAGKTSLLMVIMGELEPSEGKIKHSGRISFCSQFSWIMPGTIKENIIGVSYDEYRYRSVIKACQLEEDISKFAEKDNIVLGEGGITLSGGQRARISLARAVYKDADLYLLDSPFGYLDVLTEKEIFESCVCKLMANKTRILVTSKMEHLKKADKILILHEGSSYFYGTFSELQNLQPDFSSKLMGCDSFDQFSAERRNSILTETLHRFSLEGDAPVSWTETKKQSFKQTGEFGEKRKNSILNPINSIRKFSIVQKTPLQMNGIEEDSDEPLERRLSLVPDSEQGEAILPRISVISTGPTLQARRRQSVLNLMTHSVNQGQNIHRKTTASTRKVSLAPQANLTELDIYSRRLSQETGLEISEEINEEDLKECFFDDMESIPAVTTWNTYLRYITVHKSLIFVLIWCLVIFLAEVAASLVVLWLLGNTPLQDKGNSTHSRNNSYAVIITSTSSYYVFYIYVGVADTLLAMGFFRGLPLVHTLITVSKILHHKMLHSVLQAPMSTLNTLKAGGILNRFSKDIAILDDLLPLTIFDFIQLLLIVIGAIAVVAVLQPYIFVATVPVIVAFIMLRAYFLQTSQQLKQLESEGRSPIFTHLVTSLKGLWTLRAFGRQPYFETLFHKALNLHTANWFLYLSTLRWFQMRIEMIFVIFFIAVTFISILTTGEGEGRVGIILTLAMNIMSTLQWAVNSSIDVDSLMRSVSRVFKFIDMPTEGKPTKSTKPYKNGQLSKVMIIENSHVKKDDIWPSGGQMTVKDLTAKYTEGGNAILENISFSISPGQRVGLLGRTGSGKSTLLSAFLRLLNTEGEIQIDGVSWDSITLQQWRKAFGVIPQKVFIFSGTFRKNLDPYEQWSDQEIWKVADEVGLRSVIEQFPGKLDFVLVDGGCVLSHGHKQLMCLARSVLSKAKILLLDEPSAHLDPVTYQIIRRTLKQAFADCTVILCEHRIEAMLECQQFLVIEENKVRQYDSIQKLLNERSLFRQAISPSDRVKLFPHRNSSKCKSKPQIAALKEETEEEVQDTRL

The first assay concerns the target T1, F508del (Homo sapiens, UniProt P13569, DEL508-508).
T1 construct: expressed in transfected cells
The assay is described as follows: Protocol 2: FRET membrane potential optical assay (VIPR), identification of correction compounds. It is filed as cell-based. The conditions noted are these: F508del CFTR modulator activity; compounds of Table 1; read-out: EC30. Summed up: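 Mouse NIH3T3 cells, stable F508del; cpd 16 hrs, 37° C., serum-free; pos ctrl 27° C. 16 hrs. Rinse in Krebs Ringers, dye load, then add 10 μM forskolin + 20 μM genistein with Cl^−-free (gluconate) medium; depolarization by FRET voltage dyes.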
Regarding `Cc1cc(-c2ccc(C(=O)NS(=O)(=O)c3cccc(N)n3)c(N3C[C@@H](C)CC3(C)C)n2)cc(OCCOC(C)C)n1` [Compound 2079, N-[(6-amino-2-pyridyl)sulfonyl]-6-[2-(2-isopropoxyethoxy)-6-methyl-4-pyridyl]-2-[(4S)-2,2,4-trimethylpyrrolidin-1-yl]pyridine-3-carboxamide], the EC30 is less than 3 µM.
Still for that read-out and setting: the same measure for `CC1CN(c2ncccc2C(=O)NS(=O)(=O)c2cccc(OCC3CCOC3)n2)C(C)(C)C1` (stereo not drawn) [Compound 2396, N—[[6-(tetrahydrofuran-3-ylmethoxy)-2-pyridyl]sulfonyl]-2-(2,2,4-trimethylpyrrolidin-1-yl)pyridine-3-carboxamide]: 3 to 10 µM.
For the molecule `CCOCCNc1cccc(S(=O)(=O)NC(=O)c2cccnc2N2CC(C)CC2(C)C)n1` (stereo not drawn) [Compound 2354, N—[[6-(2-ethoxyethylamino)-2-pyridyl]sulfonyl]-2-(2,2,4-trimethylpyrrolidin-1-yl)pyridine-3-carboxamide], the EC30 fell in the range of 3 to 10 µM.
As to `COC[C@@H]1CCCN1c1cccc(S(=O)(=O)NC(=O)c2cccnc2N2CC(C)CC2(C)C)n1` (stereo partly drawn) [Compound 2024, N—[[6-[(2S)-2-(methoxymethyl)pyrrolidin-1-yl]-2-pyridyl]sulfonyl]-2-(2,2,4-trimethylpyrrolidin-1-yl)pyridine-3-carboxamide], the EC30 was 3 to 10 µM.
In the case of `CCOc1ccc(-c2ccc(C(=O)NS(=O)(=O)N3CC[C@H](N)C3)c(N3C[C@@H](C)CC3(C)C)n2)cc1` [Compound 2525, N-[(3S)-3-aminopyrrolidin-1-yl]sulfonyl-6-(4-ethoxyphenyl)-2-[(4S)-2,2,4-trimethylpyrrolidin-1-yl]pyridine-3-carboxamide], the EC30 was 3 to 10 µM.
For `CC1CN(c2ncccc2C(=O)NS(=O)(=O)c2cccc(NCC3CCCC3)n2)C(C)(C)C1` (stereo not drawn) [Compound 2026, N—[[6-(cyclopentylmethylamino)-2-pyridyl]sulfonyl]-2-(2,2,4-trimethylpyrrolidin-1-yl)pyridine-3-carboxamide], the EC30 is less than 3 µM.
Take `CC(C)Oc1cccc(-c2ccc(C(=O)NS(=O)(=O)N3CC[C@H](N)C3)c(N3C[C@@H](C)CC3(C)C)n2)c1` [Compound 2156, N-[(3S)-3-aminopyrrolidin-1-yl]sulfonyl-6-(3-isopropoxyphenyl)-2-[(4S)-2,2,4-trimethylpyrrolidin-1-yl]pyridine-3-carboxamide]: the EC30 was less than 3 µM.
As to `C[C@@H]1CN(c2nc(-c3cccc(OC(F)(F)F)c3)ccc2C(=O)NS(=O)(=O)c2cccnc2N)C(C)(C)C1` [Compound 2245, N-[(2-amino-3-pyridyl)sulfonyl]-6-[13-(trifluoromethoxy)phenyl]-2-[(4S)-2,2,4-trimethylpyrrolidin-1-yl]pyridine-3-carboxamide], the EC30 is less than 3 µM.
As to `CC(C)CCN(C)c1cccc(S(=O)(=O)NC(=O)c2cccnc2N2CC(C)CC2(C)C)n1` (stereo not drawn) [Compound 2346, N—[[6-[isopentyl(methyl)amino]-2-pyridyl]sulfonyl]-2-(2,2,4-trimethylpyrrolidin-1-yl)pyridine-3-carboxamide], the 30% effect concentration (EC30) was less than 3 µM.
On to `COc1cc(C)c(-c2ccc(C(=O)NS(=O)(=O)c3ccc[nH]c3=O)c(N3C[C@@H](C)CC3(C)C)n2)c(C)c1` [Compound 2575, 6-(4-methoxy-2,6-dimethyl-phenyl)-N-[(2-oxo-1H-pyridin-3-yl)sulfonyl]-2-[(4S)-2,2,4-trimethylpyrrolidin-1-yl]pyridine-3-carboxamide], for which the EC30 was less than 3 µM.
Consider `Nc1cccc(S(=O)(=O)NC(=O)c2cccnc2N2CCCC(c3ccccc3)C2)n1` (single isomer, unassigned) [Compound 2615], for which the EC30 lay within 3 to 10 µM.
For the molecule `C[C@@H]1CN(c2nc([C@H]3CC[C@@H](C(F)(F)F)CC3)ccc2C(=O)NS(=O)(=O)c2ccc[nH]c2=O)C(C)(C)C1` [Compound 2315, N-[(2-oxo-1H-pyridin-3-yl)sulfonyl]-6-[4-(trifluoromethyl)cyclohexyl]-2-[(4S)-2,2,4-trimethylpyrrolidin-1-yl]pyridine-3-carboxamide], the EC30 is less than 3 µM.
For the molecule `CC1CN(c2ncccc2C(=O)NS(=O)(=O)c2cccc(Oc3ccccc3N3CCCCC3)n2)C(C)(C)C1` (stereo not drawn) [Compound 2738], the EC30 was less than 3 µM.

Staying with this assay, now noted: Table 3; compounds of Table 1 as modulators of CFTR activity; protocol not stated.
`CC(C)(C)c1ccc(C(=O)NS(=O)(=O)c2cccc(N)n2)c(C2CCCCC2)n1` [Compound 411, N-[(6-amino-2-pyridyl)sulfonyl]-6-tert-butyl-2-cyclohexyl-pyridine-3-carboxamide]: the EC30 entry is “+++ (“+++” means <3 uM)”.
For the molecule `CC(=O)c1cccc(S(=O)(=O)NC(=O)c2cc(C(C)(C)C)nn2Cc2c(C)cc(C)cc2C)c1` [Compound 332, N-(3-acetylphenyl)sulfonyl-5-tert-butyl-2-[(2,4,6-trimethylphenyl)methyl]pyrazole-3-carboxamide], the EC30 entry is “+++ (“+++” means <3 uM)”.
Same read-out and setting: for `Cc1cc(C)c(Cn2nc(C(C)(C)C)cc2C(=O)NS(=O)(=O)c2cccc(N)c2C)c(C)c1` [Compound 123, N-(3-amino-2-methyl-phenyl)sulfonyl-5-tert-butyl-2-[(2,4,6-trimethylphenyl)methyl]pyrazole-3-carboxamide] the value was “+++ (“+++” means <3 uM)”; for `COc1cc2cc(C(=O)NS(=O)(=O)c3ccccc3)n(Cc3c(C)cc(C)cc3C)c2cc1OC` [Compound 198, N-(benzenesulfonyl)-5,6-dimethoxy-1-[(2,4,6-trimethylphenyl)methyl]indole-2-carboxamide], “+++ (“+++” means <3 uM)”; for `CC(C)COc1cc(F)cc(-c2ccc(C(=O)NS(=O)(=O)c3cccc(N)n3)c(N3CC4CCC3C4)n2)c1` (stereo not drawn) [Compound 680, N-[(6-amino-2-pyridyl)sulfonyl]-2-(3-azabicyclo[2.2.1]heptan-3-yl)-6-(3-fluoro-5-isobutoxy-phenyl)pyridine-3-carboxamide], “+++ (“+++” means <3 uM)”.
On the same count and under the same terms, the same measure for `Cc1cc(C)c(C)c(Cn2nc(C(C)(C)C)cc2C(=O)NS(=O)(=O)c2cccc(N)c2)c1C` [Compound 317, N-(3-aminophenyl)sulfonyl-5-tert-butyl-2-[(2,3,5,6-tetramethylphenyl)methyl]pyrazole-3-carboxamide]: “+++ (“+++” means <3 uM)”; for `Cc1cc(C)c(Cn2nc(C(C)(C)C)cc2C(=O)NS(=O)(=O)c2cccc(N(C)C)c2)c(C)c1` [Compound 270, 5-tert-butyl-N-[3-(dimethylamino)phenyl]sulfonyl-2-[(2,4,6-trimethylphenyl)methyl]pyrazole-3-carboxamide]: “+++ (“+++” means <3 uM)”.
Still for that read-out and setting: the same measure for `CC(C)COc1cc(F)cc(-c2ccc(C(=O)NS(=O)(=O)c3cccc(N)n3)c(N3CC=CC3)n2)c1` [Compound 453, N-[(6-amino-2-pyridyl)sulfonyl]-2-(2,5-dihydropyrrol-1-yl)-6-(3-fluoro-5-isobutoxy-phenyl)pyridine-3-carboxamide]: “+++ (“+++” means <3 uM)”.
Turning to `CC(C)COc1cc(F)cc(-c2ccc(C(=O)NS(=O)(=O)c3cccc(O)c3)c(N3CC(C)CC3(C)C)n2)c1` (stereo not drawn) [Compound 395, 6-(3-fluoro-5-isobutoxy-phenyl)-N-(3-hydroxyphenyl)sulfonyl-2-(2,2,4-trimethylpyrrolidin-1-yl)pyridine-3-carboxamide], the EC30 entry is “+++ (“+++” means <3 uM)”.
`Cc1cccc(C)c1Cn1nc(-c2ccccc2F)cc1C(=O)NS(=O)(=O)c1ccccc1` [Compound 109, N-(benzenesulfonyl)-2-[(2,6-dimethylphenyl)methyl]-5-(2-fluorophenyl)pyrazole-3-carboxamide]: the EC30 entry is listed as “+++ (“+++” means <3 uM)”.
For `Cc1cc(C)c(Oc2nc(C(C)(C)C)ccc2C(=O)NS(=O)(=O)c2cncc(N)c2)c(C)c1` [Compound 163, N-[(5-amino-3-pyridyl)sulfonyl]-6-tert-butyl-2-(2,4,6-trimethylphenoxy)pyridine-3-carboxamide], the EC30 result is given as “+++ (“+++” means <3 uM)”.
The same measure, in the same setting: for `Cc1ccccc1Oc1nc(-c2cc(F)cc(OCC(C)C)c2)ccc1C(=O)NS(=O)(=O)c1cccc(N)n1` [Compound 778, N-[(6-amino-2-pyridyl)sulfonyl]-6-(3-fluoro-5-isobutoxy-phenyl)-2-(2-methylphenoxy)pyridine-3-carboxamide] the value was “+++ (“+++” means <3 uM)”; for `COc1ccc(-c2ccc(C(=O)NS(=O)(=O)c3cccc(N)n3)c(Oc3c(C)cc(C)cc3C)n2)cc1` [Compound 17, N-[(6-amino-2-pyridyl)sulfonyl]-6-(4-methoxyphenyl)-2-(2,4,6-trimethylphenoxy)pyridine-3-carboxamide], “+++ (“+++” means <3 uM)”; for `CC(C)(C)c1cccc(-c2nc(C(C)(C)C)ccc2C(=O)NS(=O)(=O)c2cccc(N)c2)c1` [Compound 229, N-(3-aminophenyl)sulfonyl-6-tert-butyl-2-(3-tert-butylphenyl)pyridine-3-carboxamide], “+++ (“+++” means <3 uM)”.
Same read-out and setting: the same measure for `Cc1cc(C)c(Oc2nc(-c3ccc(Cl)c(OC(C)C)c3)ccc2C(=O)NS(=O)(=O)c2cccc(N)n2)c(C)c1` [Compound 281, N-[(6-amino-2-pyridyl)sulfonyl]-6-(4-chloro-3-isopropoxy-phenyl)-2-(2,4,6-trimethylphenoxy)pyridine-3-carboxamide]: “+++ (“+++” means <3 uM)”; for `Cc1cccc(C)c1Cn1nc(C(C)(C)C)cc1C(=O)NS(=O)(=O)c1ccc(F)c(N)c1` [Compound 150, N-(3-amino-4-fluoro-phenyl)sulfonyl-5-tert-butyl-2-[(2,6-dimethylphenyl)methyl]pyrazole-3-carboxamide]: “+++ (“+++” means <3 uM)”.
As for `Cc1cc(C)c(Oc2nc(C(F)(F)F)ccc2C(=O)NS(=O)(=O)c2ccccc2)c(C)c1` [Compound 244, N-(benzenesulfonyl)-6-(trifluoromethyl)-2-(2,4,6-trimethylphenoxy)pyridine-3-carboxamide], the EC30 entry is recorded as “+++ (“+++” means <3 uM)”.
